Laboratory results from ChEMBL document CHEMBL1127607, “Genetically evolved receptor models: a computational approach to construction of receptor models” (J Med Chem, 1994).

Organism: Homo sapiens
Experiment: Potency based on concentration of sweetener which matches the sweetness recognition threshold of sucrose (~2%)
Format: functional, organism-based

Question: With `CC12CCC(C1)C(C)(C)C2OC(=O)C(NC(=O)C(N)CC(=O)O)c1cccs1` (configuration not stated) as the compound, how does the Log potency read?
Answer: 3.38

Question: With `COC(=O)[C@H](Cc1ccccc1)NC(=O)[C@@H](N)CC(=O)O` as the compound, how does the Log potency read?
Answer: 2.26

Question: Which Log potency does the source give for `N#Cc1ccc(NC(=O)NC(CC(=O)O)c2cccnc2)cc1` (configuration not stated) here?
Answer: 4.3

Question: How did the Log potency turn out when `COC(=O)C(Cc1ccccc1)NC(=O)C(CC(=O)O)/N=C(\S)Nc1ccc(C#N)cc1` (configuration not stated) was run?
Answer: 4.7

Question: For `COC(=O)C(Cc1ccccc1)NC(=O)C(CC(=O)O)NC(=O)Nc1ccc(C#N)cc1` (configuration not stated), which Log potency is on record?
Answer: 4

Question: How did the Log potency turn out when `N#Cc1ccc(NC(=O)NC(CC(=O)O)c2ccccc2)cc1` (configuration not stated) was run?
Answer: 4

Question: For `CC(NC(=O)C(N)CC(=O)O)C(=O)NC1CCCC1` (configuration not stated), which Log potency is on record?
Answer: 1.7

Question: `O=C(O)C/N=C(\NCc1ccccc1)Nc1cc(Cl)cc(Cl)c1` was tested. Which Log potency did it give?
Answer: 4.9

Question: `CC(NC(=O)C(N)CC(=O)O)C(=O)NC1C(C)(C)SC1(C)C` (configuration not stated) was tested. Which Log potency did it give?
Answer: 3.3

Question: How did the Log potency turn out when `N#CN/C(=N\CC(=O)O)Nc1ccc(C#N)cc1` was run?
Answer: 3.85

Question: `C[C@@H](N/C(=N\CC(=O)O)Nc1ccc(C#N)cc1)c1ccccc1` was tested. Which Log potency did it give?
Answer: 4.45

Question: How did the Log potency turn out when `N#Cc1ccc(NC(=O)NC(CC(=O)O)c2ccncc2)cc1` (configuration not stated) was run?
Answer: 3.3

Question: `CC12CCC(C1)C(C)(C)C2OC(=O)C(NC(=O)C(N)CC(=O)O)c1ccco1` (configuration not stated) was tested. Which Log potency did it give?
Answer: 4.22

Question: For `O=C(O)CCNC(=O)Nc1ccc([N+](=O)[O-])cc1`, which Log potency is on record?
Answer: 2.85

Question: With `N#Cc1ccc(N/C(=N/CC(=O)O)NCc2ccccc2)cc1` as the compound, how does the Log potency read?
Answer: 4.48

Question: With `C[C@@H](N/C(=N\CC(=O)O)Nc1cc(Cl)cc(Cl)c1)c1ccccc1` as the compound, how does the Log potency read?
Answer: 5.08

Question: For `N#Cc1ccc(NC(=O)NCCC(=O)O)cc1`, which Log potency is on record?
Answer: 2.65

Question: `N#CN/C(=N\CCC(=O)O)Nc1ccc(C#N)cc1` was tested. Which Log potency did it give?
Answer: 2.95

Question: For `CC(NC(=O)C(N)CC(=O)O)C(=O)NC1C(C)(C)CCC1(C)C` (configuration not stated), which Log potency is on record?
Answer: 2.9

Question: With `N#Cc1ccc(N/C(=N/CC(=O)O)NC2CCCCCCC2)cc1` as the compound, how does the Log potency read?
Answer: 5.23

Question: Which Log potency does the source give for `N#Cc1ccc(N/C(=N/CC(=O)O)NS(=O)(=O)c2ccccc2)cc1` here?
Answer: 4.48

Question: `N#Cc1ccc(N/C(S)=N/CCC(=O)O)cc1` was tested. Which Log potency did it give?
Answer: 3.32
